Test results as given in ChEMBL document CHEMBL3425470, “Discovery of imidazopyridine derivatives as highly potent respiratory syncytial virus fusion inhibitors” (ACS Med Chem Lett, 2015).
Converted amounts (≈) assume the structure as drawn.

How the values were obtained:
[1] = Antiviral activity against Respiratory syncytial virus A infected in human Hep2 cells assessed as reduction of virus-induced cytopathic effect after 6 days by CCK-8 assay; type: functional, cell-based, Respiratory syncytial virus type A; conditions: HEp-2, 144 h
[2] = Cytotoxicity against human Hep2 cells assessed as cell viability after 6 days by CCK-8 assay
[3] = Solubility of the compound in phosphate buffer at pH 6.5 after overnight incubation by LYSA method
[4] = Clearance in human liver microsomes at 1 uM
[5] = Clearance in mouse liver microsomes at 1 uM
[6] = in vitro; conditions: PAMPA
Description: Permeability of the compound at 150 uM by PAMPA

[7] = biological target: Cytochrome P450 3A4 (Homo sapiens, UniProt P08684); experiment: Inhibition of CYP3A4 in human liver microsomes by LC-MS/MS analysis
[8] = biological target: Cytochrome P450 2C9 (Homo sapiens, UniProt P11712); experiment: Inhibition of CYP2C9 in human liver microsomes by LC-MS/MS analysis
[9] = biological target: Cytochrome P450 2D6 (Homo sapiens, UniProt P10635); experiment: Inhibition of CYP2D6 in human liver microsomes by LC-MS/MS analysis
Cytochrome P450 2D6, sequence (P10635 whole entry): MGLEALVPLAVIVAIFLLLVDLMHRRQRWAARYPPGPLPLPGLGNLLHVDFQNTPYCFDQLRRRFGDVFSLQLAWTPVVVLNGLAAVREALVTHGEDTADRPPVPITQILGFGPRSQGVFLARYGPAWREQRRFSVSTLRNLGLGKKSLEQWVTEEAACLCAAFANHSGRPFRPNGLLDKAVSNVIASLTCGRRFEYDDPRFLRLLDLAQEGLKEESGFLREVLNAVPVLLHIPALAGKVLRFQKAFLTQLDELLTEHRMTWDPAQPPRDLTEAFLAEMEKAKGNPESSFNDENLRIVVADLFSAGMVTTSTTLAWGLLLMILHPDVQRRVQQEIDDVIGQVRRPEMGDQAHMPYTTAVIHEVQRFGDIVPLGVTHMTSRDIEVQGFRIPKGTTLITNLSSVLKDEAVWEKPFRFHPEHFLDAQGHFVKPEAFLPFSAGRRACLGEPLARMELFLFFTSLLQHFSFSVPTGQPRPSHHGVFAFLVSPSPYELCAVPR

Cytochrome P450 2C9, sequence (P11712 whole entry): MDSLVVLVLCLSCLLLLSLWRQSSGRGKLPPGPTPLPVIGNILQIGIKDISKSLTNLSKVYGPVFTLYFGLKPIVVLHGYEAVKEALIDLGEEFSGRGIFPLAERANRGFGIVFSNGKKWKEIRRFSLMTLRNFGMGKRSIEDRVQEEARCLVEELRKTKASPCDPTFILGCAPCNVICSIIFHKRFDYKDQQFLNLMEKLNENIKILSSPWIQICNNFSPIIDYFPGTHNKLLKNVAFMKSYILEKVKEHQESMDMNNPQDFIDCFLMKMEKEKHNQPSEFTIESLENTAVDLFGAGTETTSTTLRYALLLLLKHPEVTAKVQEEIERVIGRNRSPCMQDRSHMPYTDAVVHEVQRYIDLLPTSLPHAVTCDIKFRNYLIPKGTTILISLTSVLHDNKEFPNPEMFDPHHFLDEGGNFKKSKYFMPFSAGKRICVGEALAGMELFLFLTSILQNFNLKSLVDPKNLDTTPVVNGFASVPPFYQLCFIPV
Cytochrome P450 3A4, sequence (P08684 whole entry): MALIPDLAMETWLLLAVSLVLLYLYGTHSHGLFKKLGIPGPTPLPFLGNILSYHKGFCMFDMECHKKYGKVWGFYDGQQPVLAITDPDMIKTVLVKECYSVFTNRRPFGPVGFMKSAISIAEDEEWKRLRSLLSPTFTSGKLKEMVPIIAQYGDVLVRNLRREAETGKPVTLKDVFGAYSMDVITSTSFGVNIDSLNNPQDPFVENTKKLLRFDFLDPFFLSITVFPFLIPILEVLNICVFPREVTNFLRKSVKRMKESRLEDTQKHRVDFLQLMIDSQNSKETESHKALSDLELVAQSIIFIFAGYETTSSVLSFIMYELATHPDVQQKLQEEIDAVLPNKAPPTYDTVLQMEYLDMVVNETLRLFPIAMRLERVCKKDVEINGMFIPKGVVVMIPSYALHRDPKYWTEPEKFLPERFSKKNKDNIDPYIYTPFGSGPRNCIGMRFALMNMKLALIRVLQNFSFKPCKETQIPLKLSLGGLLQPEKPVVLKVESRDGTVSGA

Structure (SMILES)	EC50 [1]	CC50 at 144 h ([2]; Hep2 cells)	also measured
O=c1n(Cc2nc3ccccc3n2CCCCO)c2cnccc2n1C1CC1	28 nM		
Cc1ccc2nc(Cn3c(=O)n(C4CC4)c4ccncc43)c(CCCCO)n2c1	217 nM	> 100000 nM	
O=c1n(Cc2nc3ccc(F)cn3c2CCCCO)c2cnccc2n1C1CC1	96 nM	> 100000 nM	
O=c1n(Cc2nc3ccc(Cl)cn3c2CCCCO)c2cnccc2n1C1CC1	422 nM	> 100000 nM	
O=c1n(Cc2nc3ccc(C(F)(F)F)cn3c2CCCCO)c2cnccc2n1C1CC1	2890 nM	> 100000 nM	
Cc1ccn2c(CCCCO)c(Cn3c(=O)n(C4CC4)c4ccncc43)nc2c1	6 nM	> 100000 nM	
CCc1ccn2c(CCCCO)c(Cn3c(=O)n(C4CC4)c4ccncc43)nc2c1	7 nM	> 100000 nM	
O=c1n(Cc2nc3cc(F)ccn3c2CCCCO)c2cnccc2n1C1CC1	23 nM	> 100000 nM	
O=c1n(Cc2nc3ccccn3c2CCCCO)c2cnccc2n1C1CC1	17 nM	> 100000 nM	
O=c1n(Cc2nc3cc(C(F)(F)F)ccn3c2CCCCO)c2cnccc2n1C1CC1	217 nM	> 100000 nM	
O=c1n(Cc2nc3cc(Cl)ccn3c2CCCCO)c2cnccc2n1C1CC1	7 nM	> 100000 nM	solubility [3]: 20 µg/mL (≈ 48.6 µM); CLhep predicted at 1 µM [4]: 11.5 mL/min/kg; CLhep predicted at 1 µM [5]: 80 mL/min/kg; Papp at 150 µM [6]: 3.1 ×10⁻⁶ cm/s
O=c1n(Cc2cn3ccc(Cl)cc3n2)c2cnccc2n1C1CC1	3060 nM	22300 nM	
N#Cc1c(Cn2c(=O)n(C3CC3)c3ccncc32)nc2cc(Cl)ccn12	86 nM	22500 nM	
O=c1n(Cc2nc3cc(Cl)ccn3c2CO)c2cnccc2n1C1CC1	1930 nM	> 100000 nM	
O=C(O)c1c(Cn2c(=O)n(C3CC3)c3ccncc32)nc2cc(Cl)ccn12	25500 nM	> 100000 nM	
O=C(NCCO)c1c(Cn2c(=O)n(C3CC3)c3ccncc32)nc2cc(Cl)ccn12	2230 nM	> 100000 nM	
CS(=O)(=O)CCNC(=O)c1c(Cn2c(=O)n(C3CC3)c3ccncc32)nc2cc(Cl)ccn12	82 nM	> 100000 nM	
O=C(O)/C=C/c1c(Cn2c(=O)n(C3CC3)c3ccncc32)nc2cc(Cl)ccn12	207 nM	> 100000 nM	
O=C(O)CCc1c(Cn2c(=O)n(C3CC3)c3ccncc32)nc2cc(Cl)ccn12	53 nM		CC50 at 144 h ([2]; hep-2): > 100000 nM; solubility [3]: 541 µg/mL (≈ 1310 µM); CLhep predicted at 1 µM [5]: 9.1 mL/min/kg; IC50 [7]: > 50000 nM; IC50 [8]: > 50000 nM; IC50 [9]: > 50000 nM; Papp at 150 µM [6]: 0.3 ×10⁻⁶ cm/s
NC(=O)CCc1c(Cn2c(=O)n(C3CC3)c3ccncc32)nc2cc(Cl)ccn12	5 nM	> 100000 nM	solubility [3]: 87 µg/mL (≈ 212 µM); CLhep predicted at 1 µM [4]: 13.5 mL/min/kg; CLhep predicted at 1 µM [5]: 59 mL/min/kg; Papp at 150 µM [6]: 2.5 ×10⁻⁶ cm/s
O=C(CCc1c(Cn2c(=O)n(C3CC3)c3ccncc32)nc2cc(Cl)ccn12)NCCO	10 nM	> 100000 nM	solubility [3]: 107 µg/mL (≈ 235 µM); CLhep predicted at 1 µM [4]: 2.9 mL/min/kg; CLhep predicted at 1 µM [5]: 47 mL/min/kg; Papp at 150 µM [6]: 0.96 ×10⁻⁶ cm/s
CS(=O)(=O)NC(=O)CCc1c(Cn2c(=O)n(C3CC3)c3ccncc32)nc2cc(Cl)ccn12	46 nM	> 100000 nM	
CS(=O)(=O)CCc1c(Cn2c(=O)n(C3CC3)c3ccncc32)nc2cc(Cl)ccn12	6 nM	> 100000 nM	solubility [3]: 59 µg/mL (≈ 132 µM); CLhep predicted at 1 µM [4]: 2.5 mL/min/kg; CLhep predicted at 1 µM [5]: 35 mL/min/kg; IC50 [7]: > 50000 nM; IC50 [8]: > 50000 nM; IC50 [9]: > 50000 nM; Papp at 150 µM [6]: 3.6 ×10⁻⁶ cm/s
CCS(=O)(=O)CCc1c(Cn2c(=O)n(C3CC3)c3ccncc32)nc2cc(Cl)ccn12	3 nM		CC50 at 144 h ([2]; hep-2): > 100000 nM; solubility [3]: 46 µg/mL (≈ 100 µM); CLhep predicted at 1 µM [4]: 4.6 mL/min/kg; CLhep predicted at 1 µM [5]: 62 mL/min/kg; IC50 [7]: > 50000 nM; IC50 [8]: > 50000 nM; IC50 [9]: > 50000 nM; Papp at 150 µM [6]: 2.6 ×10⁻⁶ cm/s
CCCCNc1c(Cn2c(=O)n(C3CC3)c3ccncc32)nc2cc(Cl)ccn12	41 nM	> 100000 nM	
O=c1n(Cc2nc3cc(Cl)ccn3c2NC2CCCCC2)c2cnccc2n1C1CC1	72 nM	> 100000 nM	
O=c1n(Cc2nc3cc(Cl)ccn3c2NCCN2CCOCC2)c2cnccc2n1C1CC1	83 nM	> 100000 nM	
O=c1n(Cc2nc3cc(Cl)ccn3c2CNCCO)c2cnccc2n1C1CC1	683 nM	> 100000 nM	
CS(=O)(=O)c1ccc(-c2c(Cn3c(=O)n(C4CC4)c4ccncc43)nc3cc(Cl)ccn23)cc1	89 nM	> 100000 nM	
